Assay results as given in patent US8304452B2, “Radical scavenger and active oxygen eliminating agent” (InBiotex Inc., priority 2005, dated 2012).

Legend:
[1] = DPPH-scavenging activity versus TEMPOL (Example 5); type: biochemical; conditions: 60 μM DPPH, 1 to 1000 μM test substance, 5 minutes; FIG. 5
Protocol: 5-S-GAD or TEMPOL was added to an ethanol solution of 60 μM DPPH to a final concentration of 1 to 1000 μM, for reaction at ambient temperature for 5 minutes. Subsequently, the concentration of the DPPH radical was measured via the absorbance at 517 nm. The DPPH radical concentration in a reaction solution to which PBS(−) instead of the test substance was added, was used as a control. In the same manner as in Example 2, the scavenging ratio (%) of the DPPH radical was calculated and defined as the radical-scavenging activity (see FIG. 5).

[2] = tested on: galactosemic cataract model; experiment: Galactosemic cataract model, eye drops (Example 4); type: in vivo, Crj:CD(SD) IGS rats; set-up: key to Pathological findings of lens: Cataract / Pathological findings of lens: Vacuolation of lens epithelium / Pathological findings of lens: Alignment irregularity of lens cortical fiber / Pathological findings of lens: Vacuole structure in outer cortex: −: no change; ±: very slight change; +: slight change; 2+: medium change; 3+: significant change; conditions: for severity of cataract (Cotlier standard score): four times per day, n=10, mean±standard deviation; for Pathological findings of lens: Alignment irregularity of lens cortical fiber / Pathological findings of lens: Cataract / Pathological findings of lens: Vacuolation of lens epithelium / Pathological findings of lens: Vacuole structure in outer cortex: eye balls resected 28 days later; for cases with severe sugar cataract: until day 28 of eye dropping
Protocol: 352 mg of a test substance was weighed and then dissolved in 1.1 mL of 1N NaOH (1 mol/L sodium hydroxide; manufactured by Wako Pure Chemical, Co., Ltd.). After dissolution, it was verified with a pH paper (Duotest under trade name; MACHEREY-NAGEL) that the pH was within an acceptable range (5 to 8). Subsequently, the resulting solution was divided in each volume of 0.03 mL into 30 2-ml tubes (28 such tubes for four tests per day for 7 days+2 such tubes for spare). These were immediately frozen in liquid nitrogen, and stored under freezing (preset at −85° C. within an acceptable range of −90 to −75° C.)/dark conditions. The solutions under storage were defined as stock solution at 320 mg/mL. The stock solutions could be used within 8 days after the preparation. The stock solutions outside the 8-day period after the preparation were disposed. Before eye dropping, the following preparation was done. After the tubes of the stock solution at 320 mg/mL were back to ambient temperature, 0.93 mL of physiological saline was directly added to the tubes for dilution. After preparative dilution, it was verified with a pH paper that the pH of the diluted solutions were within an acceptable range (5 to 8). The resulting eye drop was defined as 1.0% eye drop for use in administration. 0.09 mL of the 1.0% eye drop was divided in a 2-mL tube, to which 0.81 mL of physiological saline was directly added for dilution. Subsequently, it was verified with a pH paper that the pH of the diluted solution was within an acceptable range (5 to 8). The resulting eye drop was defined as 0.1% eye drop, for use in administration. Herein, eye drops of pH outside the acceptable range were never used. The 1.0% eye drop and the 0.1% eye drop practically used for administration were at pH 5.2 to 8.0 and pH 6.2 to 7.4, respectively. As the medium, physiological saline as the control substance was used as it was. Male Crj:CD(SD) IGS rats (SPF) of age 3 weeks were subjected to a 5-day quarantine period and then to an 8-day acclimatization period. By the random extraction method, the rats were grouped in 3 groups, where each group consisted of 10 rats, in a manner such that the average body weight and deviation in each group might be almost equal. After grouping, the rats were fed ad libitum with a powdery feed containing galactose at 50% [a powder feed (Lot No. 050107) of a mixture at equal amounts of CRF-1 powder feed (Lot No. 041104; manufacturer: Oriental Yeast Co., Ltd.) and galactose (D-galactose, Lot No. QYG0223, manufacturer: Yoneyama Pharmaceutical Industry, Co. Ltd.); the mixture was prepared by Oriental Yeast Co., Ltd.; abbreviated as {galactose feed}] hereinafter], as placed in a powder feeder. Additionally, the rats were fed ad libitum with drinking water. The three groups were defined as (A) medium control group, (B) 0.1% 5-S-GAD eye drop group, and (C) 1.0% 5-S-GAD eye drop group for dosing. The administration route was eye dropping as a clinically prospective route. The number of eye dropping per day was four times, while the interval between eye droppings was about 2 hours. The eye dropping was done around 9:30 am (9:00 am to 10:00 am as the defined time period), around 11:30 (11:00 am to 12:00 am as the defined time period), around 13:30 (13:00 pm to 14:00 pm as the defined time period) and around 15:30 pm (15:00 pm to 16:00 pm as the defined time period). Eye dropping was done over 28 days. On day 1, day 7, day 14, day 21 and day 28, ophthalmologic examinations were done about 30 minutes after each last eye dropping. The observation method is as follows. Right eye with eye drop application and left eye without any treatment were observed of their lenses, using a slit lamp (SL-15, Kowa Company, Ltd.). The severity of cataract was evaluated, according to the Cotlier standard (see FIG. 1 in Arch Ophthalmol., (67) 476-82, 1962, which was entitled ‘Development of galactose cataract in the rat, showing biomicroscopic front and slit view’). […]

[3] = Superoxide anion-scavenging activity, xanthine/xanthine oxidase, lucigenin chemiluminescence (Example 3); type: biochemical; conditions: for Radical-scavenging ratio (%) (superoxide anion-scavenging activity): chemiluminescence AUC over 10 minutes, control = 100, mean, n=2
Protocol: In a 50 mM carbonate buffer (pH 10) containing 200 μM lucigenin, 100 μM xanthine and 1 mU/mL xanthine oxidase reacted together. The chemiluminescence level depending on the generated superoxide anion (O^2−) was assayed with BIOLUMAT (under trade name) (Model type LB 9505, manufactured by EG&G BERTHORD Company) for 10 minutes. The area under the curve indicating the total chemiluminescence over the 10 minutes was calculated. Defining the area under the curve for a group (control) added with PBS(−) instead of the test substance solution at the same amount as that of the solution as 100, the effect of N-β-alanyl-5-S-glutathionyl-3,4-dihydroxyphenylalanine (5-S-GAD) (Table 4) or Carnosine (under trade name) (Table 5) on the increase of chemiluminescence was examined. The suppressive activity thereof was defined as superoxide anion-scavenging activity (%) (mean, n=2; see Table 4, Table 5 and FIG. 3).

NCCC(=O)N[C@@H](Cc1cc(O)c(O)c(SC[C@H](NC(=O)CC[C@H](N)C(=O)O)C(=O)NCC(=O)O)c1)C(=O)O [5-S-GAD, N-β-alanyl-5-S-glutathionyl-3,4-dihydroxyphenylalanine]
DPPH radical-scavenging action compared with TEMPOL (in words) [1]: excellent DPPH radical-scavenging action compared with TEMPOL
abnormality of general states ([2]; 0.1% and 1.0% eye drop groups, before eye dropping and about one hour after the last eye dropping during the eye dropping period): no abnormality of their general states was observed
severity of cataract (Cotlier standard score) ([2]; 0.1% eye drop, on day 1): 0 ± 0
severity of cataract (Cotlier standard score) ([2]; 0.1% eye drop, on day 7): 1.9 ± 0.1
severity of cataract (Cotlier standard score) ([2]; 0.1% eye drop, on day 14): 2.5 ± 0.1
severity of cataract (Cotlier standard score) ([2]; 0.1% eye drop, on day 21): 3.6 ± 0.1
severity of cataract (Cotlier standard score) ([2]; 0.1% eye drop, on day 28): 3.9 ± 0.1
Pathological findings of lens: Alignment irregularity of lens cortical fiber ([2]; 0.1% eye drop): +
Pathological findings of lens: Cataract ([2]; 0.1% eye drop): 2+
Pathological findings of lens: Vacuolation of lens epithelium ([2]; 0.1% eye drop): ±
Pathological findings of lens: Vacuole structure in outer cortex ([2]; 0.1% eye drop): ±
cases with severe sugar cataract ([2]; 0.1% eye drop): no case with severe sugar cataract occurred until day 28
severity of cataract (Cotlier standard score) ([2]; 1.0% eye drop, on day 1): 0 ± 0
severity of cataract (Cotlier standard score) ([2]; 1.0% eye drop, on day 7): 1.8 ± 0.1
severity of cataract (Cotlier standard score) ([2]; 1.0% eye drop, on day 14): 2.4 ± 0.1
severity of cataract (Cotlier standard score) ([2]; 1.0% eye drop, on day 21): 3.4 ± 0.1
severity of cataract (Cotlier standard score) ([2]; 1.0% eye drop, on day 28): 3.8 ± 0.1
Pathological findings of lens: Alignment irregularity of lens cortical fiber ([2]; 1.0% eye drop): +
Pathological findings of lens: Cataract ([2]; 1.0% eye drop): 2+
Pathological findings of lens: Vacuolation of lens epithelium ([2]; 1.0% eye drop): −
Pathological findings of lens: Vacuole structure in outer cortex ([2]; 1.0% eye drop): ±
cases with severe sugar cataract ([2]; 1.0% eye drop): No case with severe sugar cataract emerged until day 28
pathological effect in the galactosemic rat cataract model (in words) ([2]; pathological findings, day 28): apparent ameliorating effect pathologically
Radical-scavenging ratio (%) (superoxide anion-scavenging activity) ([3]; 0.1 μM added): −0.75%
Radical-scavenging ratio (%) (superoxide anion-scavenging activity) ([3]; 1 μM added): 26.03%
Radical-scavenging ratio (%) (superoxide anion-scavenging activity) ([3]; 10 μM added): 78.28%
Radical-scavenging ratio (%) (superoxide anion-scavenging activity) ([3]; 100 μM added): 91.19%
action for scavenging the superoxide anion (O^2−) (in words) ([3]; summary of Table 4, Table 5 and FIG. 3): strong actions for scavenging the superoxide anion (O^2−)
